This note sets out measurements from ChEMBL document CHEMBL5346981, “Structure-Guided Design and Synthesis of a Pyridazinone Series of Trypanosoma cruzi Proteasome Inhibitors” (J Med Chem, 2023).

Data set [1] is described as follows: Cytotoxicity against African green monkey Vero E6 cells assessed as reduction in cell viability. The format is toxicity, cell-based. The conditions noted are these: African green monkey (Chlorocebus sabaeus).
A short description of data set [2]: Inhibition of chymotrypsin like activity in Trypanosoma cruzi Silvio X10/7 proteasome using Suc-LLVY-Rho-110-D-Proline peptide as substrate preincubated for 10 mins followed by substrate addition and measured for 30 mins by fluorescence based microplate reader analysis.
Data set [3] concerns Trypanosoma cruzi. Put plainly: Antiprotozoal activity against intracellular Trypanosoma cruzi X10/7 A1 amastigotes infected in Vero cells assessed as parasite growth inhibition incubated for 72 to 96 hrs by Hoechst 33342 staining based analysis. The format is functional, organism-based. The conditions noted are these: X10/7 A1, Vero.
The test system of data set [4] is Trypanosoma cruzi. The data set is described as follows: Antitrypanosomal activity against Trypanosoma cruzi X10/7 A1 infected in Balb/c mouse assessed as parasite clearance at 100 mg/kg, po bid for 20 days by bioluminescence analysis. The class given is functional, organism-based. The conditions noted are these: time 20.0 day.
The test system of data set [5] is Blood. Put plainly: T>EC99 in Balb/c mouse infected with Trypanosoma cruzi X10/7 A1 assessed as time of blood free drug concentration in mouse exceeding EC99 for antiprotozoal activity against intracellular Trypanosoma cruzi infected in Vero cells at 50 mg/kg, po and measured after 1 day by UPLC-MS/MS analysis. The class given is ADME, organism-based. The conditions noted are these: in vivo, 24 h.

For data set [6], the system named is Blood. The data set is described as follows: T>EC99 in Balb/c mouse infected with Trypanosoma cruzi X10/7 A1 assessed as time of blood free drug concentration in mouse exceeding EC99 for antiprotozoal activity against intracellular Trypanosoma cruzi infected in Vero cells at 50 mg/kg, po and measured after 20 days by UPLC-MS/MS analysis. The format is ADME, organism-based. The conditions noted are these: in vivo, 480 h, time 20 day.

For data set [7], the system named is Blood. The data set is described as follows: T>EC99 in Balb/c mouse assessed as time of blood total concentration in mouse exceeding EC99 for antiprotozoal activity against intracellular Trypanosoma cruzi infected in Vero cells at 50 mg/kg, po and measured upto 24 hrs by UPLC-MS/MS analysis. The format is ADME, organism-based. The conditions noted are these: in vivo.

The source made the active and inactive calls. No cut-off for these calls is given here. Bounds are passed on as bounds.

By EC50 is commonly meant the concentration giving half of the maximal effect. A word on the pIC50: it is −log10 of the IC50, conventionally taken in molar units.

As to `COc1ccc(Cn2nc(C(=O)Nc3ccc(F)c(C(=O)NC4CC4)c3)ccc2=O)cc1C#N`, the EC50 in data set [1] is more than 50.1 µM. The same compound came in with a pIC50 in data set [2] of 8.

`O=C(Nc1ccc(F)c(C(=O)NC2CC2)c1)c1ccc(=O)n(Cc2ccc(Cl)c(F)c2)n1`: the values for the concentration giving a half-maximal response (EC50) (in the data set with Trypanosoma cruzi [3]; in data set [1]) were 0.251 µM and more than 50.1 µM, respectively. The pIC50 in data set [2] was found to be 7.6.

For `O=C(NC1CC1)c1cccc(NC(=O)c2ccc(=O)n(Cc3ccccc3)n2)c1`, in the data set with Trypanosoma cruzi [3], the EC50 is 10 µM. Also, the pIC50 in data set [2] came out at 6.2.

In the case of `COc1ccc(Cn2nc(C(=O)Nc3ccc(F)c(C(=O)N[C@H]4C[C@@H](N5CCOCC5)C4)c3)ccc2=O)cc1F`, the pIC50 in data set [2] turned out to be 8.1.

Regarding `O=C(Cn1ccnc1[N+](=O)[O-])NCc1ccccc1`, the outcome in the data set on Trypanosoma cruzi [4] was Active.

In the case of `CNC(=O)c1cc(NC(=O)c2ccc(=O)n(Cc3ccc(OC)cc3)n2)ccc1F`, the entries for the “T>EC99” value in the data set on Blood [5] and with Blood [6] were 5 h and less than 2 h, respectively.

`COc1ccc(Cn2nc(C(=O)Nc3ccc(F)c(C(=O)NC4CC4)c3)ccc2=O)cc1Cl`: the EC50 in data set [1] was more than 50.1 µM. Moreover, the pIC50 in data set [2] came to 8.5.

On to `COc1ccc(Cn2nc(C(=O)Nc3ccc(F)c(C(=O)N[C@H]4C[C@H](N5CCOCC5)C4)c3)ccc2=O)cc1F`, for which the negative logarithm of the IC50 (pIC50) in data set [2] came to 8.1.

Turning to `O=C(Nc1ccc(F)c(-c2cn3nc(N4CCOCC4)cnc3n2)c1)N1CCCC1`, the EC50 in data set [1] is more than 50.1 µM. In data set [2], this compound registered a pIC50 of 7.3.

With `O=C(Nc1ccc(F)c(C(=O)NC2CC2)c1)c1ccc(=O)n(CC2CCCCC2)n1`, in data set [1], the half-maximal effective concentration (EC50) was more than 50.1 µM. Moreover, the pIC50 in data set [2] was 6.4.

`CN(C(=O)c1cccc(NC(=O)c2ccc(=O)n(Cc3ccccc3)n2)c1)C1CC1` had a negative-log IC50 (pIC50) in data set [2] of 4.7.

With `O=C(NC1CC1)c1ccc(F)c(NC(=O)c2ccc(=O)n(Cc3ccccc3)n2)c1`, the concentration giving a half-maximal response (EC50) in data set [1] is more than 50.1 µM. Besides, the pIC50 in data set [2] is 5.8.

Regarding `COc1ccc(Cn2nc(C(=O)Nc3ccc(F)c(C(=O)NCCN4CCOCC4)c3)ccc2=O)cc1`, the EC50 in data set [1] is more than 50.1 µM. Besides, the negative-log IC50 (pIC50) in data set [2] was 6.9.

In the case of `COc1ccc(Cn2nc(C(=O)Nc3ccc(F)c(C(=O)N[C@H](C)CO)c3)ccc2=O)cc1F`, the EC50 in the data set with Trypanosoma cruzi [3] is 0.316 µM. For the same compound, the negative-log IC50 (pIC50) in data set [2] was found to be 7.3.

Turning to `O=C(Nc1ccc(F)c(C(=O)NC2CC2)c1)c1ccc(=O)n(Cc2ccccc2)n1`, the EC50 is 2.51 µM in the data set with Trypanosoma cruzi [3] and more than 50.1 µM in data set [1]. Also, the pIC50 in data set [2] was 6.8.

For `CNC(=O)c1cc(NC(=O)c2ccc(=O)n(Cc3ccc(OC)c(F)c3)n2)ccc1F`, the pIC50 in data set [2] stood at 8.2.

In the case of `COc1ccc(Cn2nc(C(=O)Nc3ccc(F)c(C(=O)NC4CC4)c3)ccc2=O)cc1`, in data set [1], the concentration giving a half-maximal response (EC50) was more than 50.1 µM. The compound also displayed a pIC50 in data set [2] of 7.5.

Consider `CN(C(=O)c1ccc(=O)n(Cc2ccccc2)n1)c1cccc(C(=O)NC2CC2)c1`, for which the EC50 in data set [1] is more than 50.1 µM. Moreover, the pIC50 in data set [2] is given as less than 4.

For the compound `COc1ccc(Cn2nc(C(=O)Nc3ccc(F)c(C(=O)NC4CC4)c3)ccc2=O)cc1F`, in data set [2], the negative-log IC50 (pIC50) is 8.1. The “T>EC99” value in the data set on Blood [7] came out at 14 h.

On to `O=C(Nc1cccc(C(=O)NC2CC2)c1)c1ccc(=O)n(Cc2ccccc2)c1`, for which the EC50 in data set [1] was more than 50.1 µM. In data set [2], the pIC50 stood at 5.8.

For the compound `COc1ncc(Cn2nc(C(=O)Nc3ccc(F)c(C(=O)NC4CC4)c3)ccc2=O)cc1F`, the EC50 in the data set with Trypanosoma cruzi [3] is 31.6 µM; in data set [1], more than 50.1 µM.

`COc1ccc(Cn2nc(C(=O)Nc3ccc(F)c(C(=O)N[C@H]4C[C@H](OC)C4)c3)ccc2=O)cc1F` registered a pIC50 in data set [2] of 8.2.

As for `COc1cccc(Cn2nc(C(=O)Nc3ccc(F)c(C(=O)NC4CC4)c3)ccc2=O)c1`, the EC50 in data set [1] is more than 50.1 µM. This compound also displayed a pIC50 in data set [2] of less than 4.
